No end group written: not given here.
Experiments:
rat aortic smooth muscle = experiment: Rat aortic smooth muscle contraction (muscle bath, phenylephrine); conditions: 30 minutes incubation, phenylephrine challenge, n=6
Procedure: FIGS. 71-73 show the results of an example wherein rat aortic smooth muscle was suspended on a muscle bath apparatus. Tissue was equilibrated in bicarbonate buffer and challenged with KCl (110 mM) to confirm viability of the tissue. After returning the tissue to basal tension, the smooth muscle was challenged with 5*10^−8 M phenylephrine (5*10^−8 M) and then washed with bicarbonate buffer. The tissue was then returned to basal tension through subsequent washes of bicarbonate buffer and then either treated with control, AZX 100 peptide, or AZX polyplexes. After 30 minutes of incubation, the tissue was challenged with phenylephrine, and the contractile force was compared with the initial contraction to determine the percent inhibition that occurs. […] (n=6)

human saphenous vein = experiment: HSV enhanced relaxation with AZX 100 (muscle bath, phenylephrine / sodium nitroprusside); conditions: 30 minutes incubation, n=3
[1] = system: human bronchiolar airway smooth muscle (HASM); experiment: Relaxation of human bronchiolar airway smooth muscle (HASM); set-up: unit not given here
HCAVSMCs = experiment: Flow cytometric quantification of intracellular uptake and retention; conditions: HCAVSMCs, up to 5 days after treatment
Procedure: (§1) HCAVSMCs were grown to 80-90% confluence, harvested, and seeded at 20,000 cells per well in a 24-well plate and were allowed to adhere overnight in low serum media. […] Following treatment, cells were washed with PBS −/−, washed with CellScrub buffer (Genlantis) for 10 minutes at room temperature to remove extracellular polyplexes and/or peptide, washed 2× in PBS −/−, and the media was refreshed with complete growth media. Cells were then incubated for an additional 0, 12, 24, 72, or 120 hours. Cells were then washed with PBS −/−, trypsinized, and resuspended in 0.1% Trypan blue in PBS (−/−) for analysis on a FACSCalibur flow cytometer (Becton Dickinson) with BD CellQuest™ Pro software (V 5.2). Data was exported and analyzed with FlowJo software (V 7.6.4). All samples are run in triplicate.
(§2) Studies were done using a fluorescently labeled peptide and flow cytometry. […] Exponential lines were fit to each data set in order to determine a fluorescence half-life for each treatment group. Mean Fluorescence Intensity values were reported as increase in MFI compared to untreated controls, n=3.

[2] = as above; conditions: human
Procedure: as §1, §2

Row | Substance | inhibition of contraction (rat aortic smooth muscle) | enhancement of relaxation (human saphenous vein) | Relaxation of HASM ([1]; HASM 11, .5 mM) | Relaxation of HASM ([1]; HASM 17, 1 mM) | Relaxation of HASM ([1]; HASM 17, .5 mM) | Relaxation of HASM ([1]; HASM 18, 1 mM) | Relaxation of HASM ([1]; HASM 20, 1 mM) | Relaxation of HASM ([1]; HASM 20, .5 mM) | Relaxation of HASM ([1]; HASM 22, 1 mM) | Relaxation of HASM ([1]; HASM 22, .5 mM) | intracellular retention of the peptide (HCAVSMCs) | half-life at 10 μM [2] [h]
1 | AZX 100 peptide: AZX100 peptide (SEQ ID NO: 2), which can be utilized for airway relaxation (YARAAARQARAWLRRASAPLPGLK; AZX-100 Sequence) | dose dependent inhibition of contraction | dose dependent enhancement of relaxation | 24 | 25 | 10 | 80 | 76 | 36 | 84 | 40 |  | 
2 | YARAAARQARAKALARQLGVAA [MK2i] |  |  |  |  |  |  |  |  |  |  | more rapidly lost intracellular peptide | 98.4
